One experiment deals with cyclooxygenase. Nature of the experiment: inhibition of synthesis of cyclooxygenase products TxB2 and PGE2 (rat polymorphonuclear leukocytes). In kind it is cell-based. To be noted: 10 μM; rat PMN; negative = potentiation of PGE2 synthesis. A digest of the protocol: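 Glycogen-elicited peritoneal PMN from female Wistar rats, 2×10^7 cells/ml in HBSS with Ca^++, Mg^++ and 10 mM L-cysteine, preincubated with compound 10 min at 37° C. Stimulated 10 min with A23187 (10 μM) plus 0.5 μM [14C] arachidonic acid; TxB2 and PGE2 quantified by TLC, autoradiography and scintillation counting.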

Another experiment concerns the target T1, LTD4 (Cavia porcellus, UniProt Q2NNR5).
T1 construct: isolated guinea pig trachea; from tissue; host or cells: guinea pig tracheal rings
T1 sequence (Q2NNR5 1-340): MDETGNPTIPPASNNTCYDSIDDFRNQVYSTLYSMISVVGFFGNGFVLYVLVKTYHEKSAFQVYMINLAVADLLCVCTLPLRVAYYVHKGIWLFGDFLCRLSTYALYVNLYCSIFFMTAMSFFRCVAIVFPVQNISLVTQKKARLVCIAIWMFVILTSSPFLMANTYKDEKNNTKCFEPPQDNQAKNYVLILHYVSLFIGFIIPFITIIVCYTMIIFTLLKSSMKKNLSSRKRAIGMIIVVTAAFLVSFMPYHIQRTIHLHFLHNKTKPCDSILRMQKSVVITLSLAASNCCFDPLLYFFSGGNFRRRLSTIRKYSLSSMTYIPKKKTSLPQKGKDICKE
In words: LTD4 antagonist activity in isolated guinea pig trachea. To be noted: 1 × 10^-5 M. The class given is cell-based. The method, then: The LTD4 antagonist activity of the compounds of the invention is assessed in the in vitro isolated guinea pig trachea assay. Male Hartley guinea pigs (350-400 g) are euthanized by a blow to the head, the neck is opened and the trachea removed. The trachea is maintained in aerated physiological salt solution, cleared of connective tissue and fat and cut into rings approximately 2 mm in width (usually containing two cartilaginous segments per ring). Two pieces of silk suture are then passed through the lumen of the tracheal ring and are tied around the cartilage, one on each side of the trachealis muscle. The tracheal ring is suspended between a glass hook and a force displacement transducer in a 10 ml organ bath for measurement of isometric tension. Tissues are maintained at 37° C. in aerated ([…] /5% CO2) physiological salt solution of the following composition: […] The tracheal rings are maintained at 2 g resting tension and equilibrated for 45 minutes (with frequence washing and readjustment of resting tension). The tracheal rings are first contracted by the addition of carbachol (3×10^-6 M), to determine tissue responsiveness and establish a reference contraction. On attainment of a stable level of contraction (approximately 30 minutes), the tissues are washed several times until baseline tension has been restored and the re-equilibrated for 30 minutes. The tissues are then incubated for 45 minutes with a test antagonist (either 1×10^-6 M or 1×10^-5 M) or 10 μl of an appropriate solvent control (control, non-treated). One tissue in each group serves as the control. Twenty minutes prior to the construction of the LTD4 cumulative concentration-response curve, L-[…]×10^-2 M final bath concentration) is added to inhibit bioconversion of LTD4 to LTE4. Only one LTD4 concentration-response curve is constructed in each tissue. All responses to LTD4 in an individual tissue are measured as a percentage of the reference contraction of that tissue to carbachol. LTD4 antagonist activity is determined by comparison of the concentration response curves of LTD4 in the presence and absence of antagonist. Assessment of the relative rightward shift of the antagonist treated curve relative to the solvent (control) treated tissue is calculated as a concentration ratio (Eq. A) and used in subsequent calculations to derive an antagonist pKB value (Eqs. B and C). In the vent that the maximum response to LTD4 is depressed, the EC50 for that particular curve is determined, an "apparent" pKB reported, and the compound reported as "not-competitive." [formula] If a compound is found to be active and/or depress the maximal response to LTD4, then a range of concentrations of the test compound should be used generating multiple concentration ratios which would than be used to perform a Schild analysis, and determination of a pA2 value where appropriate.

Molecules are shown by their SMILES. Counter-ions that a name gives are not always drawn.

In general, Kb refers to the equilibrium dissociation constant of an antagonist, usually derived from a functional assay. Higher therefore signals lower antagonist affinity.

Take `C[C@H](C(=O)O)c1ccc2cc(OCc3ccc4ccccc4n3)ccc2c1` [Example 17, S-(α)-α-Methyl-6-(2-quinolinylmethoxy)-2-naphthaleneacetic acid, tromethanime salt]: the “% Inhibition of CO (as PGE2)” value in the experiment with cyclooxygenase worked out at 20%. The same compound showed a Kb at LTD4 of 0.631 µM.

For `C[C@H](C(=O)N(C)O)c1ccc2cc(OCc3ccc4ccccc4n3)ccc2c1` [Example 24, (S)-N-Hydroxy-α-N-dimethyl-6-(2-quinolinylmethoxy)-2-naphthaleneacetamide], in the experiment with cyclooxygenase, the “% Inhibition of CO (as PGE2)” value was 13%. On LTD4, this compound had a Kb of 0.501 µM.

Values taken from patent US5208344A, “Naphthalenepropionic acid derivatives as anti-inflammatory/antiallergic agents” (American Home Products Corporation, priority 1991, dated 1993).
